Data: paper PMC12071944, “Interaction Between Glucagon-like Peptide 1 and Its Analogs with Amyloid-β Peptide Affects Its Fibrillation and Cytotoxicity” (International Journal of Molecular Sciences, 2025)
“Also recorded” adds a separate entry of the source. Where two headings read alike, the source gives them in different places. Ends that are not written are not given here.

Key:
Aβ40 fibrils = assay: Negative-staining TEM of Aβ40 fibrils; type: biochemical, Human
Experimental: The scale bars represent 1 μm.
A copper grid (300-mesh) coated with a 0.2% formvar film was placed on a 10 µL drop of the sample. […] Excess stain was removed using filter paper, and the grid was rinsed in deionized water for 1 min. The samples were analyzed using a JEM-1400Plus (HC) transmission electron microscope (JEOL, Ltd., Tokyo, Japan) at an accelerating voltage of 80 keV.

SH-SY5Y cells [1] = assay: MTT assay, Aβ40 cytotoxicity toward SH-SY5Y cells; details: 48 h
Experimental: (§1) GLP-1RAs were premixed with Aβ40/Aβ42 at an equimolar ratio in serum-free medium and added to the SH-SY5Y cells cultured in the same medium to a final concentration of both components of 10 µM. Staining with MTT was performed after incubation of the cells for 48 h.
(§2) Mean values and standard deviations are indicated.
(§3) Human neuroblastoma SH-SY5Y cells were cultured in DMEM-F12 medium supplemented with 1% penicillin-streptomycin-glutamine and 10% fetal bovine serum at 37 °C for 24 h in a humidified atmosphere with 5% CO2. Upon reaching 80% confluence, the cells were harvested and seeded into 96-well plates at a density of 15 × 10^5 cells per well in serum-free DMEM/F12 + PSG medium.
(§4) The Aβ40/Aβ42 samples were dissolved in fresh 1% NH4OH at a concentration of 0.5 mg/mL, followed by freeze-drying.
(§5) Freshly prepared Aβ40/Aβ42, GLP-1RAs, or their mixtures were added (100 µL per well) to the cultures 24 h after seeding to a final concentration of both components of 10 µM. The final volume of medium in the well was 200 µL. The MTT assay, designed to assess cellular metabolic activity, was performed after incubation of the cells for 48 h. MTT (0.005 mg/mL) was added and the cells were incubated for 3 h, followed by solubilization of the cells using DMSO. […] The resulting values were normalized relative to the control group of the untreated cells (100%). […]

AD patients = details: cited from earlier work; for cognition and memory: patients with mild cognitive impairment and AD, ref [16]
Description: Worldwide, approximately 416 million individuals are affected by AD dementia, prodromal AD, or preclinical AD, accounting for 22% of the population aged 50 years and older.

SH-SY5Y cells [2] = assay: MTT assay, Aβ42 cytotoxicity toward SH-SY5Y cells; details: 48 h
Experimental: as §1, §2, §3, §4
Freshly prepared Aβ40/Aβ42, GLP-1RAs, or their mixtures were added (100 µL per well) to the cultures 24 h after seeding to a final concentration of both components of 10 µM. The final volume of medium in the well was 200 µL. The MTT assay, designed to assess cellular metabolic activity, was performed after incubation of the cells for 48 h. MTT (0.005 mg/mL) was added and the cells were incubated for 3 h, followed by solubilization of the cells using DMSO. […] The resulting values were normalized relative to the control group of the untreated cells (100%). Data are presented as mean ± standard deviation (n = 5–10).

[3] = Dynamic light scattering, quaternary structure of GLP-1RAs; type: physicochemical; details: DLS, 25 °C, pH 7.4
Experimental: DLS measurements were carried out using a Zetasizer Nano ZS system (Malvern Instruments Ltd., Malvern, UK). The backscattered light from a 4 mW He-Ne laser at 632.8 nm was collected at an angle of 173°. […] The acquisition time for a single autocorrelation function was 100 s. The resulting autocorrelation functions were averaged values from three measurements. The volume-weighted size distributions were calculated using the following parameters for the buffer: the refractive index of 1.334 was measured using the RL3 refractometer (PZO, Warszawa, Poland); the viscosity value η = 0.95 mPa∙s was measured using a micro-rheology method with a water suspension of standard latex nanoparticles (NIST 3060A, Thermo Fisher Scientific, Waltham, MA, USA). The molecular mass and its standard deviation corresponding to the volume-weighted hydrodynamic radius MWRh distribution was calculated in approximation of a globular protein according to the equations from ref. [86]. The degree of multimerization was calculated as the MWRh/MWm ratio, where MWm is the molecular mass of the monomeric GLP-1RAs calculated from their molecular structure.

Aβ40 fibrillation = assay: ThT fluorescence assay of Aβ40 fibrillation; type: biochemical, Human; details: 20 µM Aβ40, 10 µM GLP-1RA, 30 °C, pH 7.4
Experimental: The influence of GLP-1RAs on Aβ40 fibril formation at 30 °C was studied using the ThT fluorescence assay at ThT and GLP-1RA concentrations of 10 μM for both components (Figure 4).
Standard deviations of the fluorescence signals are indicated. Excitation wavelength of 440 nm.
The Aβ40 sample was prepared as described in ref. [82] with some modifications (~5 mM NaOH at pH 11.8, 0.5 mg/mL). […] The control curves (without Aβ40; Figure S1) were subtracted from the corresponding kinetic curves of Aβ40 samples with/without GLP-1RAs. Each measurement was performed in 2–10 repetitions. The mean fluorescence signal values for each experimental sample were normalized to the average fluorescence signal corresponding to the saturation phase of Aβ40 fibril formation without additives. Data are presented as mean ± standard deviation.

[4] = cited from earlier work
animal AD models = details: ref [29]; cited from earlier work
[5] = b29: plasma concentrations; ref [61],[62]; cited from earlier work
serum albumin (HSA) = details: attached fatty acid chain; ref [44],[45]; cited from earlier work
APP/PS1 AD mice = details: ref [47],[48],[49]; cited from earlier work
SH-SY5Y cells [6] = assay: MTT assay, Aβ (Aβ40/Aβ42) cytotoxicity toward SH-SY5Y cells; details: 10 µM Aβ40/Aβ42 and 10 µM GLP-1RA, 48 h, summary table
Experimental: as §1, §2, §3, §4, §5

cultured neuronal cells = details: ref [30], cited from earlier work
[7] = test system: Aβ levels in the mouse brain; details: in vivo; ref [30]; cited from earlier work
Description: The N-terminally truncated forms of GLP-1, GLP-1(7-36)/(7-37), secreted from intestinal L cells, control meal-related glycemic excursions by augmentation of insulin expression and secretion and inhibition of glucagon release (reviewed in [21]). Some population of neurons in the nucleus tractus solitarii of the brainstem can also express GLP-1 [22, 23].

## glucagon-like peptide 1 [GLP-1]
Aβ40 fibrils; after ThT assay, 20 µM Aβ40 with 10 μM GLP-1RA, 1% uranyl acetate
  appearance of Aβ40 fibrils by TEM: sporadic small fibril clusters were still observed

## amyloid-β peptide, residues 1-40 [Aβ40]
Aβ40 fibrils; printed as "up to", Aβ40 with 10 μM GLP-1RA
  fibril length: up to 2 µm
SH-SY5Y cells [1]; 10 µM Aβ40 alone, n = 5–10
  decrease in cell survival: 22%

## CN(C)C(=N)N=C(N)N [metformin]
AD patients
  cognition and memory: can improve cognition and memory

## amyloid-β peptide, residues 1-42 [Aβ42]
SH-SY5Y cells [2]; 10 µM Aβ42 alone, n = 5–10
  decrease in cell survival: 37%

## CC[C@H](C)[C@H](NC(=O)[C@H](Cc1ccccc1)NC(=O)[C@H](CCC(=O)O)NC(=O)[C@H](CCCCN)NC(=O)[C@H](C)NC(=O)[C@H](C)NC(=O)[C@H](CCC(N)=O)NC(=O)CNC(=O)[C@H](CCC(=O)O)NC(=O)[C@H](CC(C)C)NC(=O)[C@H](Cc1ccc(O)cc1)NC(=O)[C@H](CO)NC(=O)[C@H](CO)NC(=O)[C@@H](NC(=O)[C@H](CC(=O)O)NC(=O)[C@H](CO)NC(=O)[C@@H](NC(=O)[C@H](Cc1ccccc1)NC(=O)[C@@H](NC(=O)CNC(=O)[C@H](CCC(=O)O)NC(=O)[C@H](C)NC(=O)[C@@H](N)Cc1c[nH]cn1)[C@@H](C)O)[C@@H](C)O)C(C)C)C(=O)N[C@@H](C)C(=O)N[C@@H](Cc1c[nH]c2ccccc12)C(=O)N[C@@H](CC(C)C)C(=O)N[C@H](C(=O)N[C@@H](CCCCN)C(=O)NCC(=O)N[C@@H](CCCNC(=N)N)C(=O)NCC(=O)O)C(C)C [GLP-1(7-37)]
[3]
  oligomerization, in words: strong oligomerization
[3]; 5–83 µM, globular protein approximation
  molecular mass from Rh (MWRh): >7 × 10^5 kDa
Aβ40 fibrillation; ThT assay and TEM, summary table
  Effect on Aβ40 Fibrillation (Figure 4 and Figure 5): Inhibition
Aβ40 fibrillation; ThT assay, 10 μM ThT, 25 mM Tris-HCl, 140 mM NaCl, ex 440/em 485 nm, 2–10 repetitions
  effect on Aβ40 fibrillation: inhibit Aβ40 fibrillation; also recorded: suppressed Aβ40 fibrillation; also recorded: suppression of Aβ40 fibrillation
[4]; in vivo
  ability to cross the BBB: possessed
Animal AD models
  AD Animal Data: learning and memory: Positive effects on learning and memory [29]

## CCCCCCCCCCCCCCCC(=O)N[C@@H](CCC(=O)NCCCC[C@H](NC(=O)[C@H](C)NC(=O)[C@H](C)NC(=O)[C@H](CCC(N)=O)NC(=O)CNC(=O)[C@H](CCC(=O)O)NC(=O)[C@H](CC(C)C)NC(=O)[C@H](Cc1ccc(O)cc1)NC(=O)[C@H](CO)NC(=O)[C@H](CO)NC(=O)[C@@H](NC(=O)[C@H](CC(=O)O)NC(=O)[C@H](CO)NC(=O)[C@@H](NC(=O)[C@H](Cc1ccccc1)NC(=O)[C@@H](NC(=O)CNC(=O)[C@H](CCC(=O)O)NC(=O)[C@H](C)NC(=O)[C@@H](N)Cc1cnc[nH]1)[C@@H](C)O)[C@@H](C)O)C(C)C)C(=O)N[C@@H](CCC(=O)O)C(=O)N[C@@H](Cc1ccccc1)C(=O)N[C@H](C(=O)N[C@@H](C)C(=O)N[C@@H](Cc1c[nH]c2ccccc12)C(=O)N[C@@H](CC(C)C)C(=O)N[C@H](C(=O)N[C@@H](CCCNC(=N)N)C(=O)NCC(=O)N[C@@H](CCCNC(=N)N)C(=O)NCC(=O)O)C(C)C)[C@@H](C)CC)C(=O)O [Lira, liraglutide]
[4]; conclusions, ref Table 4
  ability to cross the BBB: possessed
[5]
  peak plasma concentrations: 20 to 120 nM
Serum albumin (HSA)
  binding to serum albumin / clearance: favors binding to serum albumin, thereby slowing the clearance of Lira
APP/PS1 AD mice
  crosses the BBB: crosses the BBB
SH-SY5Y cells [1]; 10 µM Aβ40 + 10 µM GLP-1RA, serum-free medium
  effect on Aβ40 cytotoxicity: abolished this effect
SH-SY5Y cells [2]; 10 µM Aβ42 + 10 µM GLP-1RA, serum-free medium
  effect on Aβ42 cytotoxicity: abolished this effect; also recorded: most pronounced increase in the viability of SH-SY5Y cells
SH-SY5Y cells [6]
  Effect on Aβ Cytotoxicity to SH-SY5Y Cells (Figure 7): Protection

## donanemab
AD patients; human, in vivo
  side effects: brain edema and microhemorrhages

## insulin [intranasal insulin]
AD patients
  cognition and memory: can improve cognition and memory

## GLP-1(7-36): N-terminally truncated form of glucagon-like peptide 1, residues 7-36 (HAEGTFTSDVSSYLEGQAAKEFIAWLVKGR; ends and bridges not checked; UniProt P01275 98-127, looked up)
Cultured neuronal cells; cultured hippocampal neurons
  protection against Aβ/iron-induced death: protects cultured hippocampal neurons against Aβ/iron-induced death
Cultured neuronal cells; cultured neuronal cells
  levels of APP: decrease levels of APP in cultured neuronal cells
[7]
  Aβ levels in the mouse brain: reduce Aβ levels in the mouse brain in vivo
